Assay results from patent US20250098679A1, “HERBICIDAL PYRIDONE DERIVATIVES” (SYNGENTA CROP PROTECTION AG, priority 2021, published 2025).

Columns and labels:
Format in all cases: in vivo
Conditions in all cases: evaluated after 13 days
Setaria faberi (SETFA) = experiment: Post-emergence Test, Setaria faberi (SETFA); parameters: key to percentage damage caused to the plant, SETFA (five-point scale): 5=81-100%, 4=61-80%, 3=41-60%, 2=21-40%, 1=0-20% damage
Experimental: (§1) Seeds of a variety of test species are sown in standard soil in pots (Setaria faberi (SETFA), Echinochloa crus-galli (ECHCG), Zea mays (ZEAMX), Ipomoea hederacea (IPOHE), Amaranthus palmeri (AMAPA), Amaranthus retoflexus (AMARE)). After 8 days cultivation under controlled conditions in a glasshouse (at 24° C./16° C., day/night; 14 hours light; 65% humidity), the plants are sprayed with an aqueous spray solution derived from the formulation of the technical active ingredient in acetone/water (50:50) solution containing 0.5% Tween 20 (polyoxyethelyene sorbitan monolaurate, CAS RN 9005-64-5). Compounds are applied at 1000 g/ha unless otherwise stated. The test plants are then grown in a glasshouse under controlled conditions in a glasshouse (at 24° C./16° C., day/night; 14 hours light; 65% humidity) and watered twice daily. After 13 days the test is evaluated for the percentage damage caused to the plant. The biological activities are shown in the following table on a five-point scale (5=81-100%; 4=61-80%; 3=41-60%; 2=21-40%; 1=0-20%; -=not tested).

[1] = tested on: Amaranthus palmeri (AMAPA); experiment: Post-emergence Test, Amaranthus palmeri (AMAPA); parameters: key: 5=81-100%, 4=61-80%, 3=41-60%, 2=21-40%, 1=0-20% damage
Experimental: as §1

[2] = tested on: Amaranthus retoflexus (AMARE); experiment: Post-emergence Test, Amaranthus retoflexus (AMARE); parameters: key to percentage damage caused to the plant, AMARE (five-point scale): 5=81-100%, 4=61-80%, 3=41-60%, 2=21-40%, 1=0-20% damage
Experimental: as §1

[3] = tested on: Echinochloa crus-galli (ECHCG); experiment: Post-emergence Test, Echinochloa crus-galli (ECHCG); parameters: key to percentage damage caused to the plant, ECHCG (five-point scale): 5=81-100%, 4=61-80%, 3=41-60%, 2=21-40%, 1=0-20% damage
Experimental: as §1

Zea mays (ZEAMX) = experiment: Post-emergence Test, Zea mays (ZEAMX); parameters: key to percentage damage caused to the plant, ZEAMX (five-point scale): 5=81-100%, 4=61-80%, 3=41-60%, 2=21-40%, 1=0-20% damage
Experimental: as §1

[4] = tested on: Ipomoea hederacea (IPOHE); experiment: Post-emergence Test, Ipomoea hederacea (IPOHE); parameters: key to percentage damage caused to the plant, IPOHE (five-point scale): 5=81-100%, 4=61-80%, 3=41-60%, 2=21-40%, 1=0-20% damage
Experimental: as §1

CCOC(=O)c1c(-c2ccc(Cl)c(Cl)c2)n(CC)c(Cn2nccn2)cc1=O [Compound 58, ethyl 2-(3,4-dichlorophenyl)-1-ethyl-4-oxo-6-(triazol-2-ylmethyl)pyridine-3-carboxylate]
1 (1=0-20%): percentage damage caused to the plant, SETFA (five-point scale) (Setaria faberi (SETFA); 1000 g/ha) | percentage damage caused to the plant, AMARE (five-point scale) ([2]; 1000 g/ha) | percentage damage caused to the plant, ECHCG (five-point scale) ([3]; 1000 g/ha)
0: percentage damage caused to the plant, AMAPA (five-point scale) ([1]; 1000 g/ha) | percentage damage caused to the plant, ZEAMX (five-point scale) (Zea mays (ZEAMX); 1000 g/ha) | percentage damage caused to the plant, IPOHE (five-point scale) ([4]; 1000 g/ha)

CCn1c(Cn2ccc(C(F)(F)F)n2)cc(=O)c(C(=O)O)c1-c1ccc(N)c(Cl)c1 [Compound 133, 2-(4-amino-3-chloro-phenyl)-1-ethyl-4-oxo-6-[[3-(trifluoromethyl)pyrazol-1-yl]methyl]pyridine-3-carboxylic acid]
1 (1=0-20%): percentage damage caused to the plant, SETFA (five-point scale) (Setaria faberi (SETFA); 250 g/Ha) | percentage damage caused to the plant, AMAPA (five-point scale) ([1]; 250 g/Ha) | percentage damage caused to the plant, AMAPA (five-point scale) ([1]; 1000 g/ha) | percentage damage caused to the plant, AMARE (five-point scale) ([2]; 250 g/Ha) | percentage damage caused to the plant, AMARE (five-point scale) ([2]; 1000 g/ha) | percentage damage caused to the plant, IPOHE (five-point scale) ([4]; 1000 g/ha)
0: percentage damage caused to the plant, SETFA (five-point scale) (Setaria faberi (SETFA); 1000 g/ha) | percentage damage caused to the plant, ECHCG (five-point scale) ([3]; 250 g/Ha) | percentage damage caused to the plant, ECHCG (five-point scale) ([3]; 1000 g/ha) | percentage damage caused to the plant, ZEAMX (five-point scale) (Zea mays (ZEAMX); 250 g/Ha) | percentage damage caused to the plant, ZEAMX (five-point scale) (Zea mays (ZEAMX); 1000 g/ha) | percentage damage caused to the plant, IPOHE (five-point scale) ([4]; 250 g/Ha)

CCOC(=O)c1c(-c2ccc(Cl)c(Cl)c2)n(CC)c(Cn2cnc(C#N)n2)cc1=O [Compound 54, ethyl 6-[(3-cyano-1,2,4-triazol-1-yl)methyl]-2-(3,4-dichlorophenyl)-1-ethyl-4-oxo-pyridine-3-carboxylate]
1 (1=0-20%): percentage damage caused to the plant, SETFA (five-point scale) (Setaria faberi (SETFA); 1000 g/ha) | percentage damage caused to the plant, AMAPA (five-point scale) ([1]; 1000 g/ha) | percentage damage caused to the plant, AMARE (five-point scale) ([2]; 1000 g/ha) | percentage damage caused to the plant, ECHCG (five-point scale) ([3]; 1000 g/ha) | percentage damage caused to the plant, ZEAMX (five-point scale) (Zea mays (ZEAMX); 1000 g/ha)
0: percentage damage caused to the plant, IPOHE (five-point scale) ([4]; 1000 g/ha)

CCOCc1ccnn1Cc1cc(=O)c(C(=O)O)c(-c2ccc(Cl)c(Cl)c2)n1CC [Compound 188, 2-(3,4-dichlorophenyl)-6-[[5-(ethoxymethyl)pyrazol-1-yl]methyl]-1-ethyl-4-oxo-pyridine-3-carboxylic acid]
1 (1=0-20%): percentage damage caused to the plant, AMAPA (five-point scale) ([1]; 1000 g/ha) | percentage damage caused to the plant, IPOHE (five-point scale) ([4]; 1000 g/ha)
0: percentage damage caused to the plant, SETFA (five-point scale) (Setaria faberi (SETFA); 1000 g/ha) | percentage damage caused to the plant, AMARE (five-point scale) ([2]; 1000 g/ha) | percentage damage caused to the plant, ECHCG (five-point scale) ([3]; 1000 g/ha) | percentage damage caused to the plant, ZEAMX (five-point scale) (Zea mays (ZEAMX); 1000 g/ha)

CCn1c(Cn2ccc(-c3ccc(C)cc3)n2)cc(=O)c(C(=O)O)c1-c1ccc(Cl)c(Cl)c1 [Compound 196, 2-(3,4-dichlorophenyl)-1-ethyl-4-oxo-6-[[3-(p-tolyl)pyrazol-1-yl]methyl]pyridine-3-carboxylic acid]
0: Post-emergence Test SETFA, percentage damage caused to the plant (five-point scale) (Setaria faberi (SETFA); 1000 g/ha) | Post-emergence Test AMAPA, percentage damage caused to the plant (five-point scale) ([1]; 250 g/Ha (*)) | Post-emergence Test AMAPA, percentage damage caused to the plant (five-point scale) ([1]; 1000 g/ha) | Post-emergence Test AMARE, percentage damage caused to the plant (five-point scale) ([2]; 250 g/Ha (*)) | Post-emergence Test AMARE, percentage damage caused to the plant (five-point scale) ([2]; 1000 g/ha) | Post-emergence Test ZEAMX, percentage damage caused to the plant (five-point scale) (Zea mays (ZEAMX); 250 g/Ha (*)) | Post-emergence Test IPOHE, percentage damage caused to the plant (five-point scale) ([4]; 250 g/Ha (*)) | Post-emergence Test IPOHE, percentage damage caused to the plant (five-point scale) ([4]; 1000 g/ha)
1 (1=0-20%): Post-emergence Test ECHCG, percentage damage caused to the plant (five-point scale) ([3]; 250 g/Ha (*)) | Post-emergence Test ZEAMX, percentage damage caused to the plant (five-point scale) (Zea mays (ZEAMX); 1000 g/ha)

CCOC(=O)c1c(-c2ccc(Cl)c(Cl)c2)n(CC)c(Cn2cnc([N+](=O)[O-])c2)cc1=O [Compound 51, ethyl 2-(3,4-dichlorophenyl)-1-ethyl-6-[(4-nitroimidazol-1-yl)methyl]-4-oxo-pyridine-3-carboxylate]
0: percentage damage caused to the plant, AMARE (five-point scale) ([2]; 1000 g/ha) | percentage damage caused to the plant, ZEAMX (five-point scale) (Zea mays (ZEAMX); 1000 g/ha)
1 (1=0-20%): percentage damage caused to the plant, SETFA (five-point scale) (Setaria faberi (SETFA); 1000 g/ha) | percentage damage caused to the plant, AMAPA (five-point scale) ([1]; 1000 g/ha) | percentage damage caused to the plant, ECHCG (five-point scale) ([3]; 1000 g/ha) | percentage damage caused to the plant, IPOHE (five-point scale) ([4]; 1000 g/ha)

CCOC(=O)c1c(-c2ccc(Cl)c(Cl)c2)n(CC)c(Cn2ccc(C(F)(F)F)n2)c(Br)c1=O [Compound 23, ethyl 5-bromo-2-(3,4-dichlorophenyl)-1-ethyl-4-oxo-6-[[3-(trifluoromethyl)pyrazol-1-yl]methyl]pyridine-3-carboxylate]
1 (1=0-20%): percentage damage caused to the plant, AMARE (five-point scale) ([2]; 1000 g/ha) | percentage damage caused to the plant, ZEAMX (five-point scale) (Zea mays (ZEAMX); 1000 g/ha)
2 (2=21-40%): percentage damage caused to the plant, SETFA (five-point scale) (Setaria faberi (SETFA); 1000 g/ha) | percentage damage caused to the plant, AMAPA (five-point scale) ([1]; 1000 g/ha) | percentage damage caused to the plant, ECHCG (five-point scale) ([3]; 1000 g/ha) | percentage damage caused to the plant, IPOHE (five-point scale) ([4]; 1000 g/ha)

CCn1c(Cn2cnc(C(=O)OC)c2)cc(=O)c(C(=O)O)c1-c1ccc(Cl)c(Cl)c1 [Compound 76, 2-(3,4-dichlorophenyl)-1-ethyl-6-[(4-methoxycarbonyl-imidazol-1-yl)methyl]-4-oxo-pyridine-3-carboxylic acid]
0: percentage damage caused to the plant, ECHCG (five-point scale) ([3]; 1000 g/ha) | percentage damage caused to the plant, IPOHE (five-point scale) ([4]; 1000 g/ha)
1 (1=0-20%): percentage damage caused to the plant, SETFA (five-point scale) (Setaria faberi (SETFA); 1000 g/ha) | percentage damage caused to the plant, AMAPA (five-point scale) ([1]; 1000 g/ha) | percentage damage caused to the plant, AMARE (five-point scale) ([2]; 1000 g/ha) | percentage damage caused to the plant, ZEAMX (five-point scale) (Zea mays (ZEAMX); 1000 g/ha)

CCn1c(Cn2ncc([N+](=O)[O-])c2C)cc(=O)c(C(=O)O)c1-c1ccc(Cl)c(Cl)c1 [Compound 69, 2-(3,4-dichlorophenyl)-1-ethyl-6-[(5-methyl-4-nitro-pyrazol-1-yl)methyl]-4-oxo-pyridine-3-carboxylic acid]
3 (3=41-60%): percentage damage caused to the plant, SETFA (five-point scale) (Setaria faberi (SETFA); 1000 g/ha)
2 (2=21-40%): percentage damage caused to the plant, ZEAMX (five-point scale) (Zea mays (ZEAMX); 1000 g/ha)
1 (1=0-20%): percentage damage caused to the plant, AMAPA (five-point scale) ([1]; 1000 g/ha) | percentage damage caused to the plant, AMARE (five-point scale) ([2]; 1000 g/ha) | percentage damage caused to the plant, ECHCG (five-point scale) ([3]; 1000 g/ha) | percentage damage caused to the plant, IPOHE (five-point scale) ([4]; 1000 g/ha)

CCn1c(Cn2cc3cc(Cl)ccc3n2)cc(=O)c(C(=O)O)c1-c1ccc(Cl)c(Cl)c1 [Compound 99, 6-[(5-chloroindazol-2-yl)methyl]-2-(3,4-dichlorophenyl)-1-ethyl-4-oxo-pyridine-3-carboxylic acid]
0: percentage damage caused to the plant, SETFA (five-point scale) (Setaria faberi (SETFA); 250 g/Ha) | percentage damage caused to the plant, SETFA (five-point scale) (Setaria faberi (SETFA); 1000 g/ha) | percentage damage caused to the plant, AMAPA (five-point scale) ([1]; 250 g/Ha) | percentage damage caused to the plant, AMAPA (five-point scale) ([1]; 1000 g/ha) | percentage damage caused to the plant, AMARE (five-point scale) ([2]; 250 g/Ha) | percentage damage caused to the plant, AMARE (five-point scale) ([2]; 1000 g/ha) | percentage damage caused to the plant, ECHCG (five-point scale) ([3]; 1000 g/ha) | percentage damage caused to the plant, ZEAMX (five-point scale) (Zea mays (ZEAMX); 250 g/Ha) | percentage damage caused to the plant, IPOHE (five-point scale) ([4]; 250 g/Ha)
1 (1=0-20%): percentage damage caused to the plant, ECHCG (five-point scale) ([3]; 250 g/Ha) | percentage damage caused to the plant, ZEAMX (five-point scale) (Zea mays (ZEAMX); 1000 g/ha) | percentage damage caused to the plant, IPOHE (five-point scale) ([4]; 1000 g/ha)

CCn1c(Cn2cnc(C(=O)OC)c2C(=O)OC)cc(=O)c(C(=O)O)c1-c1ccc(Cl)c(Cl)c1 [Compound 111, 6-[[4,5-bis(methoxycarbonyl)imidazol-1-yl]methyl]-2-(3,4-dichlorophenyl)-1-ethyl-4-oxo-pyridine-3-carboxylic acid]
0: percentage damage caused to the plant, ZEAMX (five-point scale) (Zea mays (ZEAMX); 1000 g/ha) | percentage damage caused to the plant, IPOHE (five-point scale) ([4]; 1000 g/ha)
1 (1=0-20%): percentage damage caused to the plant, SETFA (five-point scale) (Setaria faberi (SETFA); 1000 g/ha) | percentage damage caused to the plant, AMAPA (five-point scale) ([1]; 1000 g/ha) | percentage damage caused to the plant, AMARE (five-point scale) ([2]; 1000 g/ha)
2 (2=21-40%): percentage damage caused to the plant, ECHCG (five-point scale) ([3]; 1000 g/ha)
